These results are taken from patent US20190127456A1, “METHODS OF TREATING IDIOPATHIC PULMONARY FIBROSIS” (FibroGen, Inc., priority 2017, published 2019).

Data set [1] deals with radiation-induced lung fibrosis. Nature of the data set: Mouse radiation-induced lung fibrosis model: lung volume by HRCT. The data set is classed as in vivo. The following applies: 14.5 Gy irradiated mice, treated 8 weeks from week 16, measured at 24 weeks; FIG. 4. How it is done: (§1) The objective of this study was to compare the activity of pamrevlumab monotherapy to either pirfenidone or nintedanib alone, and to evaluate the potential for enhanced activity of the combined agents. […] In this study, mice received thoracic irradiation (RT), followed by the therapeutic administration of the agents at 16 weeks post-irradiation when lung remodeling was evident by HRCT. After 8 weeks of drug treatment, lung density and volume were assessed by HRCT, lung function was assessed by blood gas analysis, and mice were sacrificed for histologic and gene expression analysis. C57B1/6 mice were irradiated with 14.5 Gy photons; full thorax, single dose. Treatment with therapeutic agent(s) (pamrevlumab, pirfenidone, and/or nintedanib) was initiated 16 weeks post-irradiation and continued for 8 weeks. Pamrevlumab (FG) was given IP, BIW, at 40 mg/kg; pirfenidone (PF) was given PO in chow, QD, at 300 mg/kg; nintedanib (ND) was given PO in chow, QD, at 100 mg/kg. Treatment with each agent alone, with combinations of two, and with a triple combination were carried out. Controls included non-irradiated mice, mice that were irradiated and not treated, and mice that were irradiated and given human IgG. Endpoint measurements were taken at 24 weeks for HRCT (lung structure), blood gas analysis (lung function), histology and gene expression analysis. […]

Data set [2] is described as follows: Phase two study in IPF patients: treatment emergent adverse events. Format: in vivo, human. The conditions noted are these: Phase two trial, 48 weeks. As to the method: (§2) A double-blind, placebo-controlled Phase two study was conducted in which 103 patients, randomized (1:1) to receive pamrevlumab or placebo, were treated for 48 weeks. Patients' self-administered the Saint George's Respiratory Questionnaire (SGRQ) to assess changes in health-related quality of life parameters over the course of the study. This questionnaire was developed for patients with chronic airflow limitation and the results correlate well with established measures of symptom level, disease activity and disability. Patients completed the SGRQ on Day 1 (baseline) and every 12 weeks thereafter during the 48-week treatment period. The SGRQ comprises three domains (symptoms, activity, and impact) with the score for each domain ranging from 0 to 100, with higher scores indicating worse health-related quality of life (Jones P W, et al. Respir Med 1991; 85:Suppl B:25-31; Barr J T et al. Clin Ther 2000; 22:1121-45).
Patients in the Phase two clinical trial described above in Example 2 were monitored for the occurrence of treatment emergent adverse events. The percentage of patients treated with an anti-CTGF antibody (pamrevlumab) that experienced diarrhea was 16.0% compared to 7.5% for placebo treated patients. The percentage of patients treated with pamrevlumab that experienced nausea was 14.0% compared to 13.2% for placebo treated patients. […]

Data set [3] relates to radiation-induced lung fibrosis. The experiment in a line: Mouse radiation-induced lung fibrosis model: lung function by blood gas analysis. The following applies: blood gas analysis at 24 weeks, compared to RT with no treatment; data not shown. The data set is classed as in vivo. How it is done:
The objective of this study was to compare the activity of pamrevlumab monotherapy to either pirfenidone or nintedanib alone, and to evaluate the potential for enhanced activity of the combined agents. […] In this study, mice received thoracic irradiation (RT), followed by the therapeutic administration of the agents at 16 weeks post-irradiation when lung remodeling was evident by HRCT. After 8 weeks of drug treatment, lung density and volume were assessed by HRCT, lung function was assessed by blood gas analysis, and mice were sacrificed for histologic and gene expression analysis. C57B1/6 mice were irradiated with 14.5 Gy photons; full thorax, single dose. Treatment with therapeutic agent(s) (pamrevlumab, pirfenidone, and/or nintedanib) was initiated 16 weeks post-irradiation and continued for 8 weeks. Pamrevlumab (FG) was given IP, BIW, at 40 mg/kg; pirfenidone (PF) was given PO in chow, QD, at 300 mg/kg; nintedanib (ND) was given PO in chow, QD, at 100 mg/kg. Treatment with each agent alone, with combinations of two, and with a triple combination were carried out. Controls included non-irradiated mice, mice that were irradiated and not treated, and mice that were irradiated and given human IgG. […] The effect of the treatments on lung function was assessed by blood gas analysis (data not shown).

The test system of another data set is IPF. The experiment in a line: Phase two study in IPF patients: St. George's Respiratory Questionnaire (SGRQ). The data set is classed as in vivo, human. The conditions noted are these: 48 weeks treatment, compared with placebo, FIGS. 5A-5D. As to the method:
as §2

Data set [4] has as its system radiation-induced lung fibrosis. Nature of the data set: Mouse radiation-induced lung fibrosis model: lung density by HRCT. The data set is classed as in vivo. The following applies: 14.5 Gy irradiated mice, treated 8 weeks from week 16, measured at 24 weeks; FIG. 2. How it is done: as §1

In the case of pamrevlumab, in data set [1], the “radiation-induced lung volume decrease” value was “significantly inhibited radiation-induced lung volume decrease from baseline”. Further, the “percentage of patients that experienced diarrhea” value in data set [2] (placebo 7.5%) stood at 16.0%. Further, in data set [2] (placebo 13.2%), the “percentage of patients that experienced nausea” value was 14.0%. Besides, the O2 saturation entry in data set [3] is “normalized O2 saturation”. In the data set on IPF, the “SGRQ all domains (symptoms, activity, impact) and total score, change from baseline” value was “improvement (lower values)”. Further, in data set [4], the “radiation-induced increase in lung density (Hounsfield Units)” value is given as “significantly inhibited the increase in radiation-induced lung density from baseline”.
